How the values were obtained:
Human rhinovirus sp. [1] = test: Percent inhibitory activity at 8 uM against rhinoviral 5 serotype in a plaque inhibition assay using monolayers of M-HeLa cells; format: functional
Human rhinovirus sp. [2] = test: Antiviral activity against rhinoviral-1B serotype in a plaque inhibition assay using monolayers of M-HeLa cells; format: functional, organism-based
Human rhinovirus sp. [3] = test: Antiviral activity against rhinoviral 29 serotype in a plaque inhibition assay using monolayers of M-HeLa cells; format: functional, organism-based
Human rhinovirus sp. [4] = test: Antiviral activity against rhinoviral 4 serotype in a plaque inhibition assay using monolayers of M-HeLa cells; format: functional, organism-based
Human rhinovirus sp. [5] = test: Antiviral activity against rhinoviral 9 serotype in a plaque inhibition assay using monolayers of M-HeLa cells; format: functional, organism-based
Human rhinovirus sp. [6] = test: Antiviral activity against rhinoviral 15 serotype in a plaque inhibition assay using monolayers of M-HeLa cells; format: functional, organism-based
Human rhinovirus sp. [7] = test: Antiviral activity against rhinoviral-1A serotype in a plaque inhibition assay using monolayers of M-HeLa cells; format: functional, organism-based
Human rhinovirus sp. [8] = test: Antiviral activity against rhinoviral 8 serotype in a plaque inhibition assay using monolayers of M-HeLa cells; format: functional, organism-based
Human rhinovirus sp. [9] = test: Percent inhibitory activity at 8 uM against rhinoviral 31 serotype in a plaque inhibition assay using monolayers of M-HeLa cells; format: functional
Human rhinovirus sp. [10] = test: Antiviral activity against rhinoviral 16 serotype in a plaque inhibition assay using monolayers of M-HeLa cells; format: functional, organism-based
Human rhinovirus sp. [11] = test: Antiviral activity against rhinoviral 12 serotype in a plaque inhibition assay using monolayers of M-HeLa cells; format: functional, organism-based
Human rhinovirus sp. [12] = test: Percent inhibitory activity at 8 uM against rhinoviral 19s erotype in a plaque inhibition assay using monolayers of M-HeLa cells; format: functional
Human rhinovirus sp. [13] = test: Percent inhibitory activity at 8 uM against rhinoviral 30 serotype in a plaque inhibition assay using monolayers of M-HeLa cells; format: functional
Human rhinovirus sp. [14] = test: Percent inhibitory activity at 8 uM against rhinoviral 21 serotype in a plaque inhibition assay using monolayers of M-HeLa cells; format: functional
[15] = Percent inhibitory activity at 8 uM against rhinoviral 2 serotype in a plaque inhibition assay using monolayers of M-HeLa cells; format: functional, Homo sapiens
Human rhinovirus sp. [16] = test: Percent inhibitory activity at 8 uM against rhinoviral 13 serotype in a plaque inhibition assay using monolayers of M-HeLa cells; format: functional
[17] = Antiviral activity against rhinoviral 18 serotype in a plaque inhibition assay using monolayers of M-HeLa cells at 8 uM; format: functional, cell-based; conditions: Homo sapiens
Human rhinovirus sp. [18] = test: Percent inhibitory activity at 8 uM against rhinoviral 3 serotype in a plaque inhibition assay using monolayers of M-HeLa cells; format: functional
Human rhinovirus sp. [19] = test: Antiviral activity against rhinoviral 14 serotype in a plaque inhibition assay using monolayers of M-HeLa cells; format: functional, organism-based
[20] = Percent inhibitory activity at 8 uM against rhinoviral-19 serotype in a plaque inhibition assay using monolayers of M-HeLa cells; format: functional, Homo sapiens
Human rhinovirus sp. [21] = test: Percent inhibitory activity at 8 uM against rhinoviral 15 serotype in a plaque inhibition assay using monolayers of M-HeLa cells; format: functional
Human rhinovirus sp. [22] = test: Percent inhibitory activity at 8 uM against rhinoviral 4 serotype in a plaque inhibition assay using monolayers of M-HeLa cells; format: functional
Human rhinovirus sp. [23] = test: Antiviral activity against rhinoviral 30 serotype in a plaque inhibition assay using monolayers of M-HeLa cells; format: functional, organism-based
Human rhinovirus sp. [24] = test: Antiviral activity against rhinoviral 31 serotype in a plaque inhibition assay using monolayers of M-HeLa cells; format: functional, organism-based
Human rhinovirus sp. [25] = test: Antiviral activity against rhinoviral-18 serotype in a plaque inhibition assay using monolayers of M-HeLa cells; format: functional, organism-based

Row | IC50 (Human rhinovirus sp. [2]) [nM] | IC50 (Human rhinovirus sp. [3]) [µM] | IC50 (Human rhinovirus sp. [5]) [nM] | IC50 (Human rhinovirus sp. [7]) [µM] | IC50 (Human rhinovirus sp. [8]) [µM] | IC50 (Human rhinovirus sp. [10]) [nM] | IC50 (Human rhinovirus sp. [11]) [µM] | IC50 (Human rhinovirus sp. [19]) [µM] | Structure (SMILES) | Inhibition (Human rhinovirus sp. [1]) [%] | Inhibition (Human rhinovirus sp. [14]) [%] | Inhibition [15] [%] | Inhibition (Human rhinovirus sp. [16]) [%] | Inhibition (Human rhinovirus sp. [18]) [%] | also measured
1 | 40 | 3.2 | 460 | 1.1 | 8 | 960 | 3.8 | 8 | CN(C)c1nc(C(F)(F)F)nc2c1ncn2Cc1ccccc1 | 33 | 28 | 33 | 22 | 20 | IC50 (Human rhinovirus sp. [4]): 8.8 µM; IC50 (Human rhinovirus sp. [6]): 4.8 µM; Inhibition (Human rhinovirus sp. [9]): 37%; Inhibition (Human rhinovirus sp. [12]): 32%; Inhibition (Human rhinovirus sp. [13]): 19%; IC50 [17]: 10 µM
2 | 560 | 6.3 | 1800 | 8 | 6.7 | 1900 | 5 | 9.6 | CN(C)c1nc(C(F)(F)F)nc2c1ncn2Cc1ccc(Cl)c(NC=O)c1 | 36 | 20 | 35 | 43 | 40 | Inhibition [20]: 18%; Inhibition (Human rhinovirus sp. [21]): 29%; Inhibition (Human rhinovirus sp. [22]): 34%; IC50 (Human rhinovirus sp. [23]): 6.5 µM; IC50 (Human rhinovirus sp. [24]): 8 µM; IC50 (Human rhinovirus sp. [25]): 8.7 µM

— ChEMBL document CHEMBL1124634, “Synthesis and antirhinovirus activity of 6-(dimethylamino)-2-(trifluoromethyl)-9-(substituted benzyl)-9H-purines” (J Med Chem, 1989)
